Assay [1] has as its system immobilized gamma globulin (IgG-2). Kind of assay: Adsorption and desorption of ovine PRPC peptides on immobilized IgG-2 column, ELISA titer. The format is binding. The note with it: for Titer in pool: starting material, ELISA with mono-specific anti peptide antibody; for Desorbs (pH 5.0): titer in material eluted in pH 5.0 buffer; for Not adsorbed: titer in material not adsorbed on immobilized IgG-2 column at neutral pH. The protocol: The ovine PRPC purified as described earlier was applied on immobilized IgG-2 column at neutral pH and eluted in pH 5.0 buffer. The starting materials not adsorbed and eluted materials were tested for the presence of selected peptides by an ELISA method, using mono-specific anti peptide antibody.
Changing the pH 7.0 of the IgG column by the elution buffer of pH 5.0 releases the peptides from the immobilized gamma globulin. Since the interaction between gamma globulin and peptide is not specific, the adsorption and desorption of the peptides from PRPC confirm theory concerning storage facility No II. Furthermore, the finding supports the hypothesis that binding the triplets to macromolecule represents the new mechanism used by host to transport triplets to new cells.
Background: ELISA stands for enzyme-linked immunosorbent assay.

The test system of a further assay is rabbits. Kind of assay: Immunization of rabbits with peptide antigens, antibody titer in sera. The format is in vivo, rabbit. The note with it: for Post immunization titers: estimated titer of the antibodies in sera from the immunized rabbits; for Before immunization: titer of the antibodies in rabbit sera before immunization. An excerpt: The basic problem in preparation antibody for triplets and PRPC peptides is the size of antigen use for immunization purposes. Triplets by definition are made from three amino acids. Under normal condition such peptides are too small to induce the antibody production. The monospecific antibodies, however, can be made by presenting the antigen in the form of a single amino acid as an annealed antigen. The annealed antigen can be made from the same amino acid. In other approach it is possible to increase the size of antigen by repeating the same motif several times. Formation of the annealing polymer will overcome the difficulties connected with the antigen (peptide) for antibody production.
In order to make annealing it is necessary sometimes, to add to peptide empty (not active immunological) amino acids. The strategy used for production antibodies included both variants and addition of the complete Freund adjuvant. The mono-specific antibodies against various ovine PRPC antigens were prepared on rabbits. The larger animals like sheep, goat, or horse may also be utilized. Two rabbits were selected for each natural antigen.

The nature of assay [2]: Scavenger activity in Spin trap Electromagnetic resonance. The format is biochemical. The note with it: for Scavenger Activity: Spin trap Electromagnetic resonance. The protocol:
(§1) The studies leading to discovery the mechanism protecting signals was already described earlier and is repeated here in Table 11. Amino acids QT, V, and DG may serve as an example of PRP protector present in CN V. The identified peptides were synthesized by BIO-[…] Inc. Lewisville Tex. USA. Peptides were purified in to 99% of purity their amino acid sequences were confirmed. The scavengers activity ware tested in Spin trap Electromagnetic resonance and their effect on the amyloid formation was tested on adult Lewis rats exposed to induced hypoxia. […] If small structural changes in carrier peptides lead to activation their biological activity, similar changes may suppress activity or even terminate the signal. This important property is called feed back signal. Similar type of signals ought to operate within PRPC III and PRPC IV network or are coded in CN V. In Table 12 are listed peptides that may be considered as terminating signals.

A further assay concerns amyloid formation. Kind of assay: Amyloid formation in adult Lewis rats exposed to induced hypoxia. The format is in vivo. The note with it: grades 0 to +++++, key not given. The protocol:
as §1

Results on 29 substances are retold here after patent US20100173827A1, “ROLE OF PROLINE RICH PEPTIDES IN CELLULAR COMMUNICATION MECHANISMS AND TREATMENT OF DISEASES” (priority 2008, published 2010).

In the case of AFLLYQEPVLGPV [D-1, ID NO.: 40], in assay [1], the Titer in pool is 9300, the “Desorbs (pH 5.0)” value is 6400 and the Not adsorbed came out at 200.
Consider AFLLYQEPVLGPV [SEQ. ID. NO.: 40], for which, in the assay with rabbits, the Post immunization titers is given as >25,000 and the Before immunization is listed as 0.
Regarding “DLEMPVLPVEPFPFV (Ovis aries) [SEQ. ID. NO.: 16]”, in the assay on rabbits, the Post immunization titers is given as >25,000 and the Before immunization was determined as 0.
For DPPPPQS (Ovis aries) [SEQ. ID. NO.: 6], in that order: 6,400 and 0.
Take “DQPPDVEKPDLQPFQVQS (Ovis aries) [B-9, ID NO.: 19]”: in assay [1], the Titer in pool is 2075, the “Desorbs (pH 5.0)” value is more than 25600 and the Not adsorbed stood at 0.
“DQPPDVEKPDLQPFQVQS (Ovis aries) [SEQ. ID. NO.: 19]”: in the assay on rabbits, the Post immunization titers is reported as >25,000 and the Before immunization is reported as 0.
On to DSQPPV (Ovis aries) [SEQ. ID. NO.: 14], for which, in the assay with rabbits, the Post immunization titers was >25,000 and the Before immunization stood at 0.
EMPFPKY (Ovis aries) [SEQ. ID. NO.: 21]: in the assay on rabbits, the Post immunization titers is reported as >25,000 and the Before immunization was 0.
As for FPPPK (Ovis aries) [SEQ. ID. NO.: 15], in the assay on rabbits, the Post immunization titers is given as >25,000 and the Before immunization turned out to be 0.
For the substance HKEMPFPKYPVEPFTESQ [SEQ. ID NO.: 28], the “Free radical scavenger property (in words)” value in assay [2] is reported as “powerful free radicals scavengers”.
“LFFFLPVVNVLP (Ovis aries) [SEQ. ID. NO.: 17]”: in the assay with rabbits, the Post immunization titers was >25,000 and the Before immunization is given as 0.
On to “LKPFPKLKVEVFPFP (Ovis aries) [SEQ. ID. NO.: 4]”, for which, in the assay with rabbits, the Post immunization titers is listed as >25,600 and the Before immunization stood at 0.
Regarding LPPNVG (Ovis aries) [SEQ. ID. NO.: 12], in the assay on rabbits, the Post immunization titers is >25,000 and the Before immunization was 0.
As for “LQTPQPLLQVMMEPQGD (Ovis aries) [SEQ. ID. NO.: 1]”, in the assay on rabbits, the Post immunization titers is on record as 12,800 and the Before immunization was determined as 0. In addition, in assay [1], the Titer in pool was found to be 5400, the “Desorbs (pH 5.0)” value is on record as 3200 and the Not adsorbed is reported as 800. For the same substance, in assay [2], the “Scavenger Activity” value amounted to 11%. Further, the “Inhibit Amyloid Formation” value in the assay with amyloid formation is 0.
With “LSQPKVLPVPQKAVPKPDMPIQ [C-11, ID NO.: 34]”, in assay [1], the Titer in pool came to 15400, the “Desorbs (pH 5.0)” value is more than 25600 and the Not adsorbed was found to be 400.
As to “LSQPKVLPVPQKAVPKPDMPIQ [SEQ. ID NO.: 34]”, the “Free radical scavenger property (in words)” value in assay [2] is reported as “powerful free radicals scavengers”.
Regarding “LVYPFTGPIPNSLPQNILP (Ovis aries) [SEQ. ID. NO.: 20]”, in the assay on rabbits, the Post immunization titers is listed as >25,000 and the Before immunization came to 0.
For “MPQNFYKLPQM (Ovis aries) [SEQ. ID. NO.: 2]”, in that order: >25,600 and 0.
On to MQPPPLP (Ovis aries) [B-8, ID NO.: 18], for which, in assay [1], the Titer in pool is reported as 9000, the “Desorbs (pH 5.0)” value was determined as 12800 and the Not adsorbed came to 400.
Take MQPPPLP (Ovis aries) [SEQ. ID. NO.: 18]: in the assay on rabbits, the Post immunization titers is reported as >25,000 and the Before immunization is reported as 0.
Consider “QPLLQVMMEPQ (Ovis aries) [SEQ. ID NO.: 10]”, for which the “Scavenger Activity” value in assay [2] worked out at 75%.
Consider RGPTPILV, for which the “Free radical scavenger property (in words)” value in assay [2] is on record as “powerful scavenger property”.
Take SEEMP (Ovis aries) [SEQ. ID. NO.: 13]: in the assay on rabbits, the Post immunization titers was >25,000 and the Before immunization came to 0.
For SEQP (Ovis aries) [SEQ. ID. NO.: 5], in that order: >25,600 and 0.
SPSLPQNIL [C-2, ID NO.: 25]: in assay [1], the Titer in pool turned out to be 5325, the “Desorbs (pH 5.0)” value is 12800 and the Not adsorbed is given as 0.
As for SPSLPQNIL [SEQ. ID NO.: 25], the “Free radical scavenger property (in words)” value in assay [2] is listed as “powerful free radicals scavengers”.
Regarding “VLEMKFPPPPQETVT (Ovis aries) [A-3, ID NO.: 3]”, in assay [1], the Titer in pool came out at 1350, the “Desorbs (pH 5.0)” value was found to be 6400 and the Not adsorbed came out at 400.
Take “VLEMKFPPPPQETVT (Ovis aries) [SEQ. ID. NO.: 3]”: in the assay on rabbits, the Post immunization titers is given as 12,800 and the Before immunization turned out to be 0.
Regarding VYPFPGPIN [SEQ. ID NO.: 24], in assay [2], the “Free radical scavenger property (in words)” value is given as “powerful free radicals scavengers”.
